Results taken from US20250213563A1, “SUBSTITUTED PYRIMIDIN-4(3H)-ONES FOR USE IN TREATING CANCER” (NAVIRE PHARMA, INC., priority 2021, published 2025).
“Also recorded” adds a separate entry of the source. Where two headings read alike, the source gives them in different places.

How the values were obtained:
[1] = system: KYSE-520 xenograft tumors; test: Pharmacodynamics in KYSE-520 xenograft tumors (DUSP6 / MPAS-plus mRNA); format: in vivo, NSG mice; settings: for IC50: Mus musculus, KYSE-520, plasma concentration
Protocol: KYSE-520 (EGFRamp) cells were subcutaneously implanted in NSG mice and allowed to grow to an average tumor volume of 340 mm^3 as monitored by caliper measurements. At this point, animals were randomized and treated with vehicle, Compound (10b) 25 mg/kg or Compound (10b) 100 mg/kg PO. Plasma and tumor samples were harvested 4, 16 and 24 hours after a single dose. Compound (10b) plasma concentration and tumor pERK levels were determined. Data represent mean±SEM. N=4 mice per group.
In addition to DUSP6 mRNA levels, other MAPK pathway genes were examined through sequencing analysis. The MPAS (MAPK pathway activity score) signature is a signature of 10 genes that reflects MAPK pathway activity. This gene signature has been used in the clinic to evaluate the pharmacodynamic effect of the ERK inhibitor GDC-0994 in tumors. Based on the MPAS signature, a 13-gene signature (“MPAS-plus”) was developed, which includes the 10 MPAS genes and three additional MAPK-targeted genes (ETV1, EGR1 and FOSL1) that are modulated by SHP2 inhibitors across multiple cell line models (data not shown).

[2] = target: T1, phosphatase domain of human SHP2 (Homo sapiens, UniProt Q06124); test: SHP2 enzymatic assay (DiFMUP), phosphatase domain; format: biochemical; settings: at up to 50 μM
T1 construct: phosphatase domain of human SHP2 (amino acid Ala237-Ile529); 6xHis (TEV site) (N, cleaved yes); made in house; host or cells: E. coli BL21 (DE3)
Protocol: Protein purification: The recombinant DNA for full-length human SHP2 (amino acid 1-597) or the phosphatase domain of human SHP2 (amino acid Ala237-Ile529) was cloned into a pET30 vector (Sigma #69909-3), which was modified to contain a TEV protease site after the N-terminal 6×His tag. The expression vector was transformed into E. coli BL21 (DE3) (NEB #C2527H). The protein was expressed and purified by the following procedure. Bacterial cells from a 50 mL overnight culture were inoculated in 6 L of terrific broth media. Once the E. coli culture reached an OD600 of 0.7, the temperature was lowered to 18° C. and recombinant protein expression was induced by the addition of 0.5 mM IPTG. After overnight incubation, the cells were harvested by centrifugation at […] for 45 min in a Sorvall Lynx 6000 (Thermo Fisher) centrifuge with F9-6×1000 LEX rotor. The cell pellets were stored at −80° C. until purification. […] The final product was 98% pure as determined by SDS-PAGE. The concentration of SHP2 protein was determined from the absorbance at 280 nm wavelength, using the calculated molar extinction coefficient for SHP2 protein of 72770 M^−1 cm^−1.
SHP2 enzymatic assay: Phosphatase activity of full-length human SHP2 wild-type enzyme or SHP2 phosphatase domain was measured using fluorogenic 6,8-difluoro-4-methylumbelliferyl phosphate (DiFMUP; Molecular Probes #D6567) as the substrate. […]

pERK in PBMC = test: Phase 1/1B first-in-human study, PBMC pERK inhibition; format: in vivo

T1 sequence (Q06124 237-529): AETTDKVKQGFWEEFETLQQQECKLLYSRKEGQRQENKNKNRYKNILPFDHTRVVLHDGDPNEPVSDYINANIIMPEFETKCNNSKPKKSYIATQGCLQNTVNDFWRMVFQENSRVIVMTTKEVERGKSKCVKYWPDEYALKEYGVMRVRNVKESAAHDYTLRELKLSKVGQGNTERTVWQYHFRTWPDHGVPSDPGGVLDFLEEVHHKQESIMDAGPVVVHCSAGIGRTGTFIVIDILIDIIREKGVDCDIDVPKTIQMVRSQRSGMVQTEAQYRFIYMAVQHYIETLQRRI

SMILES: Cc1c(N2CCC3(CC2)CO[C@@H](C)[C@H]3N)nc(C)n(-c2cccc(Cl)c2Cl)c1=O (atropisomer, axis not shown; (Ra)) [Compound (10b), 6-((3S,4S)-4-amino-3-methyl-2-oxa-8-azaspiro[4.5]decan-8-yl)-3-(Ra)-(2,3-dichlorophenyl)-2,5-dimethylpyrimidin-4(3H)-one]
- suppression of DUSP6 mRNA levels in tumors ([1]; 25 mg/kg PO, 4-hour after a single dose): > 90%
- suppression of DUSP6 mRNA levels in tumors ([1]; 25 mg/kg PO, 16-hour after a single dose): < 50%
- suppression of DUSP6 mRNA levels in tumors ([1]; 25 mg/kg or 100 mg/kg PO, 24-hour after a single dose): neither treatment significantly suppressed
- suppression of DUSP6 mRNA levels in tumors ([1]; 100 mg/kg PO, 4-hour after a single dose): > 90%
- suppression of DUSP6 mRNA levels in tumors ([1]; 100 mg/kg PO, 16-hour after a single dose): > 50%
- IC50 ([1]; PK/PD relationship, read-out: in vivo IC50): 1.5 µM
- IC50 ([1]; read-out: KYSE-520 xenograft DUSP6 IC50): 0.656 mg/L
- Cmax ([1]; prediction used as reference line for human plasma levels, read-out: predicted efficacious Cmax): 5.3 µM
- suppression of the MPAS-plus signature in the tumor ([1]; single oral dose or five doses, 25 mg/kg or 100 mg/kg): dose- and time-dependent suppression
- suppression of enzymatic activity of SHP2 phosphatase domain [2]: did not suppress; also recorded: does not suppress
- inhibition at 550 mg (pERK in PBMC; Homo sapiens, PBMC, 550 mg dose level, 24 h post dose): 90%
- PBMC pERK inhibition (pERK in PBMC; cohort 5 (550 mg), 4 hours post dose): ~95%
